According to US20250076280A1, “RAPID SCREENING FOR ELEVATED BILE ACIDS USING WHOLE BLOOD” (The University of Toledo, priority 2022, published 2025):

What was measured:
[1] = system: RBCs from L-TBA mice; test: Osmotic fragility test after ex-vivo bile acid supplementation of RBCs; assay type: cell-based, mouse; conditions: 100 μM bile acid in PBS, 1 hr at 37° C. before NaCl osmotic fragility test; vs PBS alone
[2] = system: RBCs; test: Osmotic fragility test of RBCs from CCl4-treated mice; assay type: in vivo, mouse; conditions: RBCs of L-TBA mice treated with CCl4 for 2 weeks vs vehicle; NaCl osmotic fragility
Procedure: (§1) C57BL/6J wild-type (WT) mice (Stock #000664) were procured from Jackson Laboratory and bred in-house in specific pathogen-free condition at the University of Toledo College of Medicine and Life Sciences. Mice were housed in cages (n=5 mice/cage) containing corn cob bedding (Bed-O-Cob; The Andersons Co.) and nestlets (Cat #CABFM00088; Ancare). The cages were housed at 23° C. under a 12/12-h light/dark phase cycle and fed a grain-based laboratory chow diet (LabDiet 5001) ad libitum. Mice were screened for serum total bile acids (TBA) prior to weaning. On day 22 for weaning, mice with low bile acids (L-TBA<40 µM) or high bile acids (H-TBA≥40 µM) were segregated into separate cages. To induce liver fibrosis in mice, carbon tetrachloride (Sigma-Aldrich, St. Louis, MO) ([…]) was administered intraperitoncally three times a week for 2 weeks with corn oil (Sigma-Aldrich) (50 μL) serving as vehicle control.
Blood was collected in EDTA-containing tubes and then 10 μl aliquots were placed into a round bottom 96-well plate. […] The degree of red blood cell (RBC) hemolysis was evaluated spectrophotometrically at 540 nm on a Biotek Eon microplate spectrophotometer and normalized to the optical density value of 0.0% buffered salt solution. […] All groups were incubated at 37° C. for 1 hr prior and measured for osmotic fragility.

[3] = Serum total bile acids in carbon tetrachloride-induced liver injury model; assay type: in vivo, mouse; conditions: L-TBA mice, CCl4 i.p. three times a week for 2 weeks vs vehicle control
Procedure: as §1
Total bile acids (TBA) in hemolysis-free sera were measured using a TBA assay kit (Enzyme Cycling Method; Diazyme Laboratories) according to the manufacturer's protocol.

| SMILES | resistance to osmotic lysis (hemolysis) of L-TBA RBCs [1] | resistance of RBCs to osmotic lysis [2] | increase in serum TBA levels [3] [fold] |
| --- | --- | --- | --- |
| C[C@H](CCC(=O)NCCS(=O)(=O)O)[C@H]1CC[C@H]2[C@@H]3[C@H](O)C[C@@H]4C[C@H](O)CC[C@]4(C)[C@H]3C[C@H](O)[C@]12C [taurocholate, taurocholic acid] | failed to induce any resistance |  |  |
| C[C@H](CCC(=O)O)[C@H]1CC[C@H]2[C@@H]3[C@H](O)C[C@@H]4C[C@H](O)CC[C@]4(C)[C@H]3C[C@H](O)[C@]12C [cholic acid] | confer resistance |  |  |
| ClC(Cl)(Cl)Cl [CCl4, carbon tetrachloride] |  | highly resistant to osmotic lysis | 16 |
